The source of these data is patent US20130005710A1, “AMINOPYRIDINE DERIVATIVE” (priority 2009, published 2013).

In one assay the test system is rat mixed glial culture. In words: Neurogenesis promoting effect in rat mixed glial culture (neuronal differentiation, beta-tubulin III ELISA). Particulars: Rattus norvegicus, 72 h, 1 μM compound + rhIGF-1 100 ng/ml, 3 days; control (only rhIGF-1) = 100%; absorbance 450 nm; read-out: Ratio of absorbance of compound-supplemented group to control (%). The class given is cell-based. The protocol: The hippocampus and the cerebral cortex were excised from each of 3-day-old SD rats. A cell suspension was prepared therefrom using a neuron dispersion kit (Sumitomo Bakelite Co., Ltd., MB-X9901) and inoculated at concentration of 10^5 cells/well to a 96-well plate coated with type I collagen (AGC Techno Glass Co., Ltd., 4860-010). The cells were cultured in a growth medium (D-MEM/F12 containing 10% FBS and PS) at 37° C. for 4 days under 5% CO2 conditions.
After the culture, the medium was replaced by a differentiation medium (D-MEM/F12 containing PS), and rhIGF-1 (R&D Systems, 291-G1-250, final concentration: 100 ng/ml) and 1 μM compound were added thereto. The cells were further cultured for 3 days. The cultured cells were fixed in 4% paraformaldehyde-PBS (Muto Pure Chemicals Co., Ltd.), subjected to membrane permeation treatment with 0.1% Triton X-100 PBS, and blocked with Block Ace solution (DS Pharma Biomedical Co., Ltd., UK-B80). Anti-neuron-specific class III beta-tubulin Antibody (R&D Systems, MAB1195, clone Tuj-1) was diluted 1000-fold and used as a primary antibody. Anti-Mouse Ig, HRP-Linked F(ab′)2 Fragment Sheep (GE Healthcare, NA9310) was diluted 10000-fold and used as a secondary antibody. A plate washer (BIO-TEK INSTRUMENTS ELX405) was used in washing operation. TMB Microwell Peroxidase Substrate System (Kirkegaard & Perry Laboratories, 50-76-00) was used in color reaction, which was performed for 10 minutes and stopped by addition of 1 M phosphoric acid. Absorbance at 450 nm was measured using a plate reader (Labsystems Multiskan BICHROMATIC).
The rate of increase in the absorbance of the compound-supplemented group (compound+rhIGF-1) relative to that of a compound-unsupplemented group (control, only rhIGF-1) as 100% was determined in terms of % control.
(In general: ELISA stands for enzyme-linked immunosorbent assay.)

The test system of the next assay is Tg2576 mice. In words: Cognitive function improving effect in novel object recognition test. Particulars: 10 mg/kg/day orally for 3 consecutive weeks, female Tg2576 mice; recovery ratio relative to wild type and vehicle. Type of assay: in vivo, mouse. The protocol: Eight- to 9-month-old female Tg2576 mice were used, and wild-type littermates were used as control mice. All the mice were raised in a room having a temperature of 23±3° C. and 12-hour light/dark cycles (light phase: 7 a.m. to 7 p.m.) and allowed to freely take food (Oriental Yeast Co., Ld.) and water.
The body weights and blood glucose levels of the Tg2576 mice were measured, and these mice were divided (n=11-15) so that there was no difference among groups. 10 mg/kg/day compound or vehicle (0.5% methylcellulose solution, Wako Pure Chemical Industries, Ltd.) was orally administered to each mouse for 3 consecutive weeks. The following novel object recognition test was conducted (acquisition trial and retention trial were carried under blind): 4 or 5 mice in one cage were placed in a box of 30×30×30 cm and acclimatized for 30 minutes in the absence of objects. On the next day, two identical objects were placed in diagonally opposite corners of the box. The mice were placed in the box, and the time spent exploring the objects for 5 minutes was recorded (acquisition trial). 24 hours later, one of the objects was in turn replaced by a novel one, and the same test as the acquisition trial was conducted (retention trial). During the test, places were appropriately changed between the two objects to minimize environmental/behavioral psychological factors. The ratio of the time spent exploring the novel object to the whole exploring time was calculated as an index showing cognitive functions and used as preference index (PI). Furthermore, a recovery ratio was calculated according to the following formula:
[Recovery ratio]=[[PI of Tg2576 mice treated by each compound]−[PI of Tg2576 mice treated by vehicle]]/[[PI of wild type mice]−[PI of Tg2576 mice treated by vehicle]]×100(%).
In this context, individuals that explored neither of the objects in the acquisition trial and the retention trial were excluded from this test.

Another assay has as its system Akt. Description: Akt protein degradation inhibitory effect in rat mixed glial culture (Western blot). Type of assay: cell-based. The note with it: 1 μM compound + rhIGF-1 100 ng/ml, 10 minutes; unsupplemented = 100%, only rhIGF-1 = 0%; Akt corrected with ERK. The protocol: The mixed glial cells used in Experimental Example 1 were inoculated at a concentration of 4×10^6 cells/well to a 6-well plate coated with type I collagen (AGC Techno Glass Co., Ltd.). The cells were cultured in a growth medium (D-MEM/F12 containing 10% FES and PS) at 37° C. for 4 days under 5% CO2 conditions. Then, the medium was replaced by a serum-free medium (D-MEM/F12 containing PS), and the cells were cultured at 37° C. for 4 days under 5% CO2 conditions to remove serum.
Next, rhIGF-1 (R&D Systems, 291-G1-250, final concentration: 100 ng/ml) and 1 μM compound were added thereto and reacted for 10 minutes in a temperature-controlled water bath set to 37° C. […]
Proteins were collected from the cell extracts using trichloroacetic acid and quantified according to the Lowry method. […] The cell extracts were diluted with RIPA so that the protein levels were constant among the test solutions on the basis of the measured values (10 μg/lane). […] Bands were detected using ImmunoStar reagent (Wako Pure Chemical Industries, Ltd., 291-55203) and an X-ray film. The results were quantified using GS-800 Calibrated Densitometer manufactured by Bio-Rad Laboratories, Inc., and band intensity was digitized by multiplying the absorbance of the Akt- or ERK-1&2-derived band by an area. […]
For orientation: In western blotting, separated proteins are transferred to a membrane and probed.

As for `COc1ccc(N2CCN(c3ccc(F)cc3)CC2)c(-c2ccc(N(C)C)cc2)n1` [Example 12, 4-{3-[4-(4-fluorophenyl)piperazin-1-yl]-6-methoxypyridin-2-yl}-N,N-dimethylaniline], the activity at 1 µM in the assay with rat mixed glial culture was 345%. The “Preference index (% recovery)” value in the assay with Tg2576 mice was determined as 70.3%.
As for `COc1ccc(N2CCN(c3ccc(OC)nc3-c3ccc(N(C)C)cc3)CC2)cc1` [Example 19, 4-{6-methoxy-3-[4-(4-methoxyphenyl)piperazin-1-yl]pyridin-2-yl}-N,N-dimethylaniline], the “Akt degradation inhibitory rate (%)” value in the assay with Akt came to 97%. Moreover, the activity at 1 µM in the assay on rat mixed glial culture was determined as 263%. Also, the “Preference index (% recovery)” value with Tg2576 mice was 118.2%.
Consider `COc1ccc(N2CCN(c3ccc(C)cc3)CC2)c(-c2ccc(N(C)C)cc2)n1` [Example 25, 4-{6-methoxy-3-[4-(4-methylphenyl)piperazin-1-yl]pyridin-2-yl}-N,N-dimethylaniline], for which, in the assay with Akt, the “Akt degradation inhibitory rate (%)” value is listed as 140%. The activity at 1 µM with rat mixed glial culture is 276%. Further, the “Preference index (% recovery)” value with Tg2576 mice turned out to be 97.0%.
Consider `CCOc1ccc(-c2nc(OC)ccc2N2CCN(c3ccc(OC)cc3)CC2)cc1` [Example 55, 1-[2-(4-ethoxyphenyl)-6-methoxypyridin-3-yl]-4-(4-methoxyphenyl)piperazine], for which, in the assay with rat mixed glial culture, the activity at 1 µM turned out to be 316%. Further, the “Preference index (% recovery)” value with Tg2576 mice stood at 19.8%.
Take `COc1ccc(N2CCN(c3ccc(OC)nc3-c3ccc4c(cnn4C)c3)CC2)cc1` [Example 171, 5-{6-methoxy-3-[4-(4-methoxyphenyl)piperazin-1-yl]pyridin-2-yl}-1-methyl-1H-indazole]: the activity at 1 µM in the assay on rat mixed glial culture was 312%.
On to `COc1ccc(N2CCN(c3ccc(OC)nc3-c3ccc(N4CCOCC4)cc3)CC2)cc1` [Example 174, 4-(4-{6-methoxy-3-[4-(4-methoxyphenyl)piperazin-1-yl]pyridin-2-yl}phenyl)morpholine], for which the activity at 1 µM with rat mixed glial culture was 390%.
